Reference: patent EP0844879B1, “PHARMACEUTICAL CO[…] D[…] IN […] IMMUNE RESPONSE” (LA[…] SPINDLER, priority 1995, dated 1996)
“Also recorded” adds a separate entry of the source.

System: vaccin monovalent de la grippe (vaccin NIB16, souche A) (HA)
Experiment: Immunisation of mice with monovalent influenza vaccine, steroid as adjuvant; total anti-HA IgG in serum by enzyme immunoassay
Assay type: in vivo, souris BALB/C
Details: aged mice compared with young mice; steroid given with HA
Description: Un protocole d'immunisation contre le vaccin monovalent de la grippe (vaccin NIB16, souche A) (HA), est utilisé pour tester l'effet adjuvant du dérivé 3β-palmitoyl de la 7αOH-DHEA mis en solution à 10 mg/ml dans le DMSO.
Trois lots de 5 souris BALB/C âgées de 6 semaines (jeunes) et trois lots de 5 souris BALB/C âgées de 90 semaines (âgées) subissent le premier jour une injection sous-cutanée de 0,5 ml de sérum physiologique contenant : • soit 8 µg de HA + 1,8 µmole (0,78 mg/kg) de 3β-palmitoyl-7αOH-DHEA (lot 1) • soit 8 µg de HA + 1,8 µmole (0,56 mg/kg) de 7αOH-DHEA (lot 2) • soit 8 µg de HA (lot 3) Après 28 jours, chaque souris de chaque lot subit un rappel, les injections décrites étant répétées pour chaque lot. Après 38 jours, chaque souris de chaque lot est sacrifiée et le sang prélevé. Les IgG totales anti-HA sont mesurées dans chaque sérum par une méthode immunoenzymatique. […] Tableau 1

Compound | réponse immunitaire des souris âgées (result in words)
C[C@]12CC[C@H](O)CC1=C[C@@H](O)[C@@H]1[C@@H]2CC[C@]2(C)C(=O)CC[C@@H]12 [7αOH-DHEA, reference compound] | cette réponse n'est pas obtenue
CCCCCCCCCCCCCCCC(=O)O[C@H]1CC[C@@]2(C)C(=C[C@@H](O)[C@@H]3[C@@H]2CC[C@]2(C)C(=O)CC[C@@H]32)C1 [3β-palmitoyl-7αOH-DHEA] | rétablit la réponse immunitaire des souris âgées à un niveau proche de celui des souris jeunes; also recorded: a un effet sur la réponse immunitaire des souris âgées comparable à celui obtenu chez les souris jeunes
